Common to all, as to format: biochemical
One experiment has as its target T1, KDM4A (JMJD2A) (Homo sapiens, UniProt O75164).
T1 construct: 1-350; purchased BPS Bioscience, US; host or cells: E. coli
T1 sequence (O75164 1-350): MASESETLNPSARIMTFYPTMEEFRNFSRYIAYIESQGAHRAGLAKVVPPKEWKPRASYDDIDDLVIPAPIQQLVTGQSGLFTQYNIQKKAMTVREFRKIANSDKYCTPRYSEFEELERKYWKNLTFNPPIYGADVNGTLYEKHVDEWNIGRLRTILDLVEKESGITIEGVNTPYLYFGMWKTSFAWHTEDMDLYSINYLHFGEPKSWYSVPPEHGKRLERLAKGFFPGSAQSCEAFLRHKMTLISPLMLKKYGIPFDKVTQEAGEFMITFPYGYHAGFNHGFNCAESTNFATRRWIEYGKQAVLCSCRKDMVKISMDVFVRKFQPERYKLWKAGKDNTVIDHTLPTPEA
Description: Histone lysine demethylase AlphaLISA assay, KDM4A. The note with it: read-out: KDM4A HDME Inhibition IC50. Here is the method:
(§1) Assays are performed analogously to the protocol described by PerkinElmer (Roy et al. PerkinElmer Technical Note: AlphaLISA #12, April 2011)
(§2) Enzymes are dissolved in enzyme buffer and incubated for 10 min before being added to 3% DMSO solutions of compounds in enzyme buffer. Incubated for another 10 minutes, before substrate solution is added and the reaction mixture is incubated at room temperature. 10 μL acceptor beads, suspended in Epigenetic Buffer (Perkin Elmer AL008) from stock, are added and the suspension is incubated in the dark at room temperature, before a suspension of streptavidin donor beads (Perkin Elmer 6760002) in Epigenetic Buffer is added. After incubation at room temperature in the dark the plates are read.
(§3) BK9M3: Biotin-ARTKQTAR(KMe3)STGGKAPRKQ-NH2 (Caslo, Denmark) […]
(§4) Substrate Solution: Substrate, 25 μM L-Asc, and 10 μM α-KG in Buffer A.

Another experiment deals with T2, KDM4B (JMJD2B) (Homo sapiens, UniProt O94953).
T2 construct: 2-500; purchased BPS; host or cells: Bac (baculovirus system)
T2 sequence (O94953 2-500): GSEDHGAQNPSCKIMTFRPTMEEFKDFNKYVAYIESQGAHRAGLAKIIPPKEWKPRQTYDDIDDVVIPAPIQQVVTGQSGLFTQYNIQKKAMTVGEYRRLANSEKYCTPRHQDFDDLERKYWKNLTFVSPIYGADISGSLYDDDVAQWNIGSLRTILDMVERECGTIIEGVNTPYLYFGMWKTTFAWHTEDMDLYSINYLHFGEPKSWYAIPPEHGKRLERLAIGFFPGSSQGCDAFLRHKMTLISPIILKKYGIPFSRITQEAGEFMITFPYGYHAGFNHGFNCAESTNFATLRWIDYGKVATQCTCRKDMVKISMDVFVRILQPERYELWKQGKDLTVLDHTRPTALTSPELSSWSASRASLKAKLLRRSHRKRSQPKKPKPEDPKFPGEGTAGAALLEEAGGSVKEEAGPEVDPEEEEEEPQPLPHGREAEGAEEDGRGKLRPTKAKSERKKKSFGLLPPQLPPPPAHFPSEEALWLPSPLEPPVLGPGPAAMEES
The experiment can be described thus: Histone lysine demethylase AlphaLISA assay, KDM4B. The conditions noted are these: read-out: KDM4B HDME Inhibition IC50. The protocol: as §1, §2, §3, §4
(Bead proximity is the source of the signal in Alpha formats.)

A further experiment concerns the target T3, KDM3A (JMJD1A) (Homo sapiens, UniProt Q9Y4C1).
T3 construct: 2-end; purchased BPS Bioscience, US; host or cells: Bac (baculovirus system)
T3 sequence (Q9Y4C1 2-1321 limits assumed): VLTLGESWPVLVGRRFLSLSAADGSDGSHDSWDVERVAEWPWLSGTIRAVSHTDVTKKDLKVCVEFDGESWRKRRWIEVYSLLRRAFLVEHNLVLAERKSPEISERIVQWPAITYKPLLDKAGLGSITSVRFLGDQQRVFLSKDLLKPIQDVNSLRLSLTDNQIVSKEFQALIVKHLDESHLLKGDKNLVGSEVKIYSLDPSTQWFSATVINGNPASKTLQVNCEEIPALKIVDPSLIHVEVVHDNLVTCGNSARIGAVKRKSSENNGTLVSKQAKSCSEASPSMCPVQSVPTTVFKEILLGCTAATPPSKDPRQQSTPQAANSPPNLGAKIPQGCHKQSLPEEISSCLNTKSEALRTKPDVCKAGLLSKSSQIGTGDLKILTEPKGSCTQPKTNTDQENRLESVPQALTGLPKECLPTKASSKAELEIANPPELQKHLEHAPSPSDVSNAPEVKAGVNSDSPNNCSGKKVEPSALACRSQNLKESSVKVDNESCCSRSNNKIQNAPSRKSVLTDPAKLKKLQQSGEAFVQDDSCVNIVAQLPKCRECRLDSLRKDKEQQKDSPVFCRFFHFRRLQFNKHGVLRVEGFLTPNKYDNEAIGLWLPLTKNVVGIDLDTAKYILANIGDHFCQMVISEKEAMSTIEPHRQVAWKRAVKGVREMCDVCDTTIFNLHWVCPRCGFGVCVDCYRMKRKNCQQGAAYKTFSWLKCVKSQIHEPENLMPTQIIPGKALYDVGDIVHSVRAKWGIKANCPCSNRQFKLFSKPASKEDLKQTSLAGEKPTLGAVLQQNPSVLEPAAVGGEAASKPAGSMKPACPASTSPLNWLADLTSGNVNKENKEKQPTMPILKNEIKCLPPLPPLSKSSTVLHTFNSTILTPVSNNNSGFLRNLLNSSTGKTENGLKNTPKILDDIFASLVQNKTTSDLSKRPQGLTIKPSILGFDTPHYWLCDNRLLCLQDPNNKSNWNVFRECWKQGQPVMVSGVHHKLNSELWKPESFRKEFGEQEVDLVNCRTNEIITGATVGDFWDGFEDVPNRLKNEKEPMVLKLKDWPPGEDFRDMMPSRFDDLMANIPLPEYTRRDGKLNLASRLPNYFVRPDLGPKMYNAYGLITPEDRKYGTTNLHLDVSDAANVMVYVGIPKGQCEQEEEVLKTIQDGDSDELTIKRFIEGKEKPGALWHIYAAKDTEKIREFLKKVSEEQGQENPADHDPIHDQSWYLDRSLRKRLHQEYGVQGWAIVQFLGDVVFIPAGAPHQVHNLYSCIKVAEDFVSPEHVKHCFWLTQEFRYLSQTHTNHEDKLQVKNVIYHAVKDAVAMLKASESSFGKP
The experiment can be described thus: Histone lysine demethylase AlphaLISA assay, KDM3A. The conditions noted are these: read-out: KDM3 A HDME Inhibition IC50. The protocol:
as §1
Enzymes are dissolved in enzyme buffer and incubated for 10 min before being added to 3% DMSO solutions of compounds in enzyme buffer. Incubated for another 10 minutes, before substrate solution is added and the reaction mixture is incubated at room temperature. 10 μL acceptor beads, suspended in Epigenetic Buffer (Perkin Elmer AL008) from stock, are added and the suspension is incubated in the dark at room temperature, before a suspension of streptavidin donor beads (Perkin Elmer 6760002) in Epigenetic Buffer is added. After incubation at room temperature in the dark the plates are read. […]
BK9M2: Biotin-ARTKQTAR(KMe2)STGGKAPRKQ-NH2 (AnaSpec 64359) […]
as §4

The IC50 is the concentration at which inhibition is half-maximal. Turning to `CCCNCc1cc(CNC2CC2)ccn1` [Compound 12, N-({2-[(propylamino)methyl]-pyridin-4-yl}methyl)-cyclopropanamine], the IC50 on KDM4A (JMJD2A) was over 2500 nM; at KDM4B (JMJD2B), under 250 nM; on KDM3A (JMJD1A), over 2500 nM.

As for `CCCCCCCC/N=C/c1ccnc(CNCC(=O)N(CC)CC)c1` [Compound 58, N,N-diethyl-2-[({4-[(octylimino)methyl]-pyridin-2-yl}methyl)amino]-acetamide], the IC50 at KDM4A (JMJD2A), on KDM4B (JMJD2B) and on KDM3A (JMJD1A) was over 2500 nM in each case.

With `O=C(CNCc1cc(/C=N/C2CC2)ccn1)N1CCC[C@@H]1CN1CCCC1` [Compound 49, 2-[({4-[N-cyclopropyl-carboximidoyl]pyridin-2-yl}methyl)amino]-1-[(2R)-2-(pyrrolidin-1-ylmethyl)pyrrolidin-1-yl]ethan-1-one], the IC50 on KDM4A (JMJD2A) is under 250 nM; at KDM4B (JMJD2B) it was under 250 nM; at KDM3A (JMJD1A) it was over 2500 nM.

`CC1CC1/N=C/c1ccnc(CNCC(=O)N(C)C)c1` (stereo not drawn) [Compound 35, N,N-dimethyl-2-[({4-[N-(2-methylcyclopropyl)-carboximidoyl]pyridin-2-yl}methyl)amino]-acetamide]: the IC50 was under 250 nM on KDM4A (JMJD2A), under 250 nM on KDM4B (JMJD2B) and over 2500 nM on KDM3A (JMJD1A).

`C(=N/C1CC1)/c1ccnc(CNCCCN2CCCC2)c1` [Compound 42, N-{[2-({[3-(pyrrolidin-1-yl)propyl]amino}-methyl)pyridin-4-yl]methylidene}-cyclopropanamine]: the IC50 at KDM4A (JMJD2A) is over 2500 nM; at KDM4B (JMJD2B) it was 250 to 2500 nM; at KDM3A (JMJD1A), over 2500 nM.

Turning to `CCN(CC)CCCCNCc1cc(/C=N/CCOC)ccn1` [Compound 60, [4-(diethylamino)butyl]-({4-[[(2-methoxyethyl)imino]-methyl]pyridin-2-yl}methyl)amine], the values for the IC50 on KDM4A (JMJD2A), at KDM4B (JMJD2B) and at KDM3A (JMJD1A) were under 250 nM, under 250 nM and over 2500 nM, respectively.

On to `O=Cc1ccnc(CNCC(=O)N2CCC[C@@H]2CN2CCCC2)c1` [Compound 102, 2-[({2-oxo-2-[(2R)-2-(pyrrolidin-1-ylmethyl)pyrrolidin-1-yl]ethyl}amino)-methyl]pyridine-4-carbaldehyde], for which the results for the IC50 on KDM4A (JMJD2A), at KDM4B (JMJD2B) and on KDM3A (JMJD1A) were over 2500 nM, 250 to 2500 nM and over 2500 nM, respectively.

`CN(C)CCNCc1ccnc(CNCC(=O)N(C)C)c1` [Compound 15, 2-({[4-({[2-(dimethylamino)ethyl]-amino}methyl)pyridin-2-yl]methyl}amino)-N,N-dimethylacetamide]: the IC50 is over 2500 nM at KDM4A (JMJD2A), 250 to 2500 nM at KDM4B (JMJD2B) and over 2500 nM at KDM3A (JMJD1A).

In the case of `CN(C)CCCNCc1cc(/C=N/CCN(C)C)ccn1` [Compound 38, ({4-[{[2-(dimethylamino)ethyl]-imino}methyl]pyridin-2-yl}methyl)[3-(dimethylamino)-propyl]amine], the IC50 at KDM4A (JMJD2A), on KDM4B (JMJD2B) and on KDM3A (JMJD1A) was over 2500 nM throughout.

Consider `O=C(CNCc1cc(/C=N/C2CC2)ccn1)NC1CCN(Cc2ccccc2)C1` (stereo not drawn) [Compound 53, N-(1-benzylpyrrolidin-3-yl)-2-[({4-[N-cyclopropyl-carboximidoyl]pyridin-2-yl}methyl)amino]-acetamide], for which the IC50 on KDM4A (JMJD2A) was under 250 nM; at KDM4B (JMJD2B) it was under 250 nM; at KDM3A (JMJD1A), 250 to 2500 nM.

In the case of `CN(C)C(=O)CNCc1cc(/C=N/CCC2CCCCC2)ccn1` [Compound 36, 2-[({4-[[(2-cyclohexylethyl)imino]-methyl]pyridin-2-yl}methyl)amino]-N,N-dimethylacetamide], the concentration for half-maximal inhibition (IC50) on KDM4A (JMJD2A) was 250 to 2500 nM; on KDM4B (JMJD2B), under 250 nM; on KDM3A (JMJD1A), over 2500 nM.

Turning to `CCN(CC)CCCCNCc1cc(/C=N\CCC2CCCCC2)ccn1` [Compound 67, (2-cyclohexylethyl)-({[2-({[4-(diethylamino)-butyl]amino}methyl)pyridin-4-yl]methylidene})-amine], the IC50 on KDM4A (JMJD2A), on KDM4B (JMJD2B) and on KDM3A (JMJD1A) was over 2500 nM in each case.

Values taken from patent publication US9650339B2, “Inhibitors of histone demethylases” (Gilead Sciences, Inc., priority 2013, dated 2017).
